Experimental data as given in ChEMBL document CHEMBL6092212, “Discovery of novel substituted (Z)-N'-hydroxy-3-(3-phenylureido)benzimidamide derivatives as multifunctional molecules targeting pathological hallmarks of Alzheimer's disease” (Eur J Med Chem, 2024).
Calls of active or inactive are those of the source. The rule behind the calls is not given here.

Key:
[1] = target: Amyloid-beta precursor protein (Homo sapiens) (UniProt P05067); assay: Inhibition of self-mediated Amyloid beta (1 to 42)(unknown origin) aggregation at 3.125 uM incubated for 3 days by ThT assay; conditions: time 3.0 day
Sequence of Amyloid-beta precursor protein (Homo sapiens) (P05067 whole entry): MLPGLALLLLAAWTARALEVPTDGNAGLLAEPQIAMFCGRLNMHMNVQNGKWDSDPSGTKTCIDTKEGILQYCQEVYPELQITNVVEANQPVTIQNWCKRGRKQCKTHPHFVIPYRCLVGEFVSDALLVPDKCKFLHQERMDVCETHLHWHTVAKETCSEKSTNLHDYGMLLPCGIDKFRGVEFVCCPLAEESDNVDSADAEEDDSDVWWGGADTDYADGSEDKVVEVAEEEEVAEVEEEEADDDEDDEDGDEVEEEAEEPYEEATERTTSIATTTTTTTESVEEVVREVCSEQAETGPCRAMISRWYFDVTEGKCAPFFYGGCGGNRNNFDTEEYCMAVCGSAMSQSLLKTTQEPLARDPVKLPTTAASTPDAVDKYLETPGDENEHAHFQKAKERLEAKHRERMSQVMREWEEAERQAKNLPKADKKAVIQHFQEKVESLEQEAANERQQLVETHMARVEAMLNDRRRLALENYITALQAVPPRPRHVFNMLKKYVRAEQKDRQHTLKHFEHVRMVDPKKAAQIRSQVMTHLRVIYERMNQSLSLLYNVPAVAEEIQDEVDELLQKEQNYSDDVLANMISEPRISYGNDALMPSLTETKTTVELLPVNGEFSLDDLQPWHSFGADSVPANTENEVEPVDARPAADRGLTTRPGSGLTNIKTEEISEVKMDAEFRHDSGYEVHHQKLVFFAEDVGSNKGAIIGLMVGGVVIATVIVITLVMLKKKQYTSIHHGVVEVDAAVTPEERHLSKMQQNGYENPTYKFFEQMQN

Mus musculus [2] = assay: Neuroprotective activity against scopolamine-induced cognitive deficit Swiss albino mouse model assessed as increase in GAP43 mRNA level at 10 mg/kg, ip measured after 14 days by RT-PCR analysis; format: functional, organism-based; conditions: time 14.0 day
HMC3 [3] = assay: Antiinflammatory activity against LPS/ATP-induced human HMC3 cells assessed as reduction in NLRP3 level at 12.5 uM by immunocytochemistry based analysis; format: functional, cell-based
[4] = Induction of NO release upto 100 uM incubated for 5 to 10 mins by Griess assay; format: functional; conditions: time 5-10 min
Mus musculus [5] = assay: Neuroprotective activity against scopolamine-induced cognitive deficit Swiss albino mouse model assessed as increase in PKA mRNA level at 10 mg/kg, ip measured after 14 days by RT-PCR analysis; format: functional, organism-based; conditions: time 14.0 day
[6] = Acute toxicity in Swiss albino mouse assessed as animal survival at 2000 mg/kg, po measured 14 days post-administration; format: organism-based; conditions: in vivo, 336 h, time 14 day
Acetylcholinesterase [7] = target: T1, Acetylcholinesterase (Homo sapiens, UniProt P22303); assay: Inhibition of human AChE using ATCI as substrate preincubated for 30 mins followed by substrate addition measured after 30 mins by Ellman's method
T1 sequence (P22303 whole entry): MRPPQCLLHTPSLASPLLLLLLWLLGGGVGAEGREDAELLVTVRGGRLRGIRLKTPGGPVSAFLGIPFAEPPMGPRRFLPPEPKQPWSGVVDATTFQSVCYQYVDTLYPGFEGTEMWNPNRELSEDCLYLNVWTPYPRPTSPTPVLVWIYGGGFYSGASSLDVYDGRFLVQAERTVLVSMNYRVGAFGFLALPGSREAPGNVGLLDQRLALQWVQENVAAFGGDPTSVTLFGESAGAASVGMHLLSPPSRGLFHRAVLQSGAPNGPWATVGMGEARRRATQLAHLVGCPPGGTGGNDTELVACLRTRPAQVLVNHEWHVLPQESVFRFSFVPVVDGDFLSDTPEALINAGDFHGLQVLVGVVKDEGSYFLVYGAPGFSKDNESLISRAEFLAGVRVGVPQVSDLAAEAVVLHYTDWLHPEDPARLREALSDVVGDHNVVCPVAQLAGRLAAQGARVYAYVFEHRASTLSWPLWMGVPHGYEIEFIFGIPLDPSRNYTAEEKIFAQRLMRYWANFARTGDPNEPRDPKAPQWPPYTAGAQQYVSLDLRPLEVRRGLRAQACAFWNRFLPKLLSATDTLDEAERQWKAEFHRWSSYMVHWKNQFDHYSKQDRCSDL

[8] = Acute toxicity in Swiss albino mouse assessed as signs of over-weight gain at 2000 mg/kg, po measured 14 days post-administration; format: organism-based; conditions: in vivo, 336 h, time 14 day
Mus musculus [9] = assay: Reversal of scopolamine-induced cognitive deficit Swiss albino mouse model assessed as decrease in escape latency at 10 mg/kg, ip measured for 5 days by Morris water maze test; format: functional, organism-based; conditions: time 5.0 day
HMC3 [10] = assay: Antiinflammatory activity against LPS/ATP-induced human HMC3 cells assessed as increase in vimentin level at 12.5 uM by immunocytochemistry based analysis; format: functional, cell-based
Mus musculus [11] = assay: Neuroprotective activity against scopolamine-induced cognitive deficit Swiss albino mouse model assessed as increase in TRKB mRNA level at 10 mg/kg, ip measured after 14 days by RT-PCR analysis; format: functional, organism-based; conditions: time 14.0 day
[12] = Permeability of compound in PBS at pH 7.4 at 500 uM by PAMPA; format: ADME; conditions: read-out: permeability
HMC3 [13] = assay: Antiinflammatory activity against LPS/ATP-induced human HMC3 cells assessed as reduction in IL-1beta level at 12.5 uM by Western blot analysis; format: functional, cell-based
[14] = Acute toxicity in Swiss albino mouse assessed as signs of convulsion at 2000 mg/kg, po measured 14 days post-administration; format: organism-based; conditions: in vivo, 336 h, time 14 day
HMC3 [15] = assay: Antiinflammatory activity against LPS/ATP-induced human HMC3 cells assessed as reduction in NF-kappaB level at 12.5 uM by immunocytochemistry based analysis; format: functional, cell-based
HMC3 [16] = assay: Antiinflammatory activity against LPS/ATP-induced human HMC3 cells assessed as decrease in Iba-1 level at 12.5 uM by Western blot analysis; format: functional, cell-based
HMC3 [17] = assay: Antiinflammatory activity against LPS/ATP-induced human HMC3 cells assessed as reduction in caspase-1 level at 12.5 uM by Western blot analysis; format: functional, cell-based
[18] = Antioxidant activity assessed as DPPH radical scavenging activity at 20 to 200 uM incubated for 30 mins by absorbance based analysis relative to control; format: functional; conditions: dose 20-200 µM
Cholinesterase [19] = target: Cholinesterase (Homo sapiens, UniProt P06276); assay: Inhibition of human BChE using BTCI as substrate preincubated for 30 mins followed by substrate addition measured after 30 mins by Ellman's method
Sequence of Cholinesterase (Homo sapiens, UniProt P06276) (P06276 whole entry): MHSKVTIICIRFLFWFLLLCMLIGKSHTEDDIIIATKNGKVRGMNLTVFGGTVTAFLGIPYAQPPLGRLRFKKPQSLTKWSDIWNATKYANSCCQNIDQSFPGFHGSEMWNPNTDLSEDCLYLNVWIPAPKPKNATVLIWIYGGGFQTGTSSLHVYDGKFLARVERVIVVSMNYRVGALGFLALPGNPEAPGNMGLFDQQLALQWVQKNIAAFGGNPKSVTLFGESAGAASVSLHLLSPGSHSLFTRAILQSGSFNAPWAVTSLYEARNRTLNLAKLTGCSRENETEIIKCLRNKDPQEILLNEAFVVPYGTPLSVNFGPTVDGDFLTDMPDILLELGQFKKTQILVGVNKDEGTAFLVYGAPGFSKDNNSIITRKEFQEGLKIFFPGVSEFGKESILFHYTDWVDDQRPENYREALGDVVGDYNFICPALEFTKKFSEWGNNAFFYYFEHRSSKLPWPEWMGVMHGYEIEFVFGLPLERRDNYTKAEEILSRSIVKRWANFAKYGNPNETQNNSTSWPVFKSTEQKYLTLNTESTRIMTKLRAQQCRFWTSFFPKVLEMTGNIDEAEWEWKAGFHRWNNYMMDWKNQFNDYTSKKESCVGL

[20] = Metal chelating activity assessed as compound-Fe3+ complex formation at 600 uM incubated for 24 hrs by UV spectrophotometry
[21] = Acute toxicity in Swiss albino mouse assessed as signs of abnormal behaviour at 2000 mg/kg, po measured 14 days post-administration; format: organism-based; conditions: in vivo, 336 h, time 14 day
HMC3 [22] = assay: Antiinflammatory activity against LPS/ATP-induced human HMC3 cells assessed as increase in Nrf2 level at 12.5 uM by Western blot analysis; format: functional, cell-based
Cholinesterase [23] = target: Cholinesterase (Equus caballus, UniProt P81908); assay: Inhibition of equine BChE using BTCI as substrate preincubated for 30 mins followed by substrate addition measured after 30 mins by Ellman's method
Sequence of Cholinesterase (Equus caballus, UniProt P81908) (P81908 whole entry): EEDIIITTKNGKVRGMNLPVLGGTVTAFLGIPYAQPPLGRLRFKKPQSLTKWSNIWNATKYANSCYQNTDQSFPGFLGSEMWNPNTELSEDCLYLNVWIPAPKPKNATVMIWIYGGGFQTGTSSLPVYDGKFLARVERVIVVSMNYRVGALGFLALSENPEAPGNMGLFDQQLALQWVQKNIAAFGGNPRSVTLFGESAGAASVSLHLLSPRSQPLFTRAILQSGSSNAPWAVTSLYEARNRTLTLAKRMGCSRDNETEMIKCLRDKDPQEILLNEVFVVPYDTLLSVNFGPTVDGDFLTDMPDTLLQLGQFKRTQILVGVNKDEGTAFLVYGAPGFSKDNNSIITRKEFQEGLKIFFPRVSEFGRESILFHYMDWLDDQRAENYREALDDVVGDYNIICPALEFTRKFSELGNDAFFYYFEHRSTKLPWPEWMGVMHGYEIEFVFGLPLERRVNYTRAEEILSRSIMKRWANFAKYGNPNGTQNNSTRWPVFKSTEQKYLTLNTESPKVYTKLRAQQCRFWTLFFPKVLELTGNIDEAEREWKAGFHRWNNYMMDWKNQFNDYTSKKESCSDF

Mus musculus [24] = assay: Neuroprotective activity against scopolamine-induced cognitive deficit Swiss albino mouse model assessed as increase in c-FOS mRNA level at 10 mg/kg, ip measured after 14 days by RT-PCR analysis; format: functional, organism-based; conditions: time 14.0 day
[25] = Acute toxicity in Swiss albino mouse assessed as signs of diarrhea at 2000 mg/kg, po measured 14 days post-administration; format: organism-based; conditions: in vivo, 336 h, time 14 day
Mus musculus [26] = assay: Reversal of scopolamine-induced cognitive deficit Swiss albino mouse model assessed as reduction in distance traveled to reach platform at 10 mg/kg, ip measured after 5 days by Morris water maze test; format: functional, organism-based; conditions: time 5.0 day
[27] = target: Microtubule-associated protein tau (Homo sapiens) (UniProt P10636); assay: Inhibition of Tau (unknown origin) aggregation at 1.125 uM incubated for 3 days by ThT assay; conditions: time 3.0 day
Sequence of Microtubule-associated protein tau (Homo sapiens) (P10636 whole entry): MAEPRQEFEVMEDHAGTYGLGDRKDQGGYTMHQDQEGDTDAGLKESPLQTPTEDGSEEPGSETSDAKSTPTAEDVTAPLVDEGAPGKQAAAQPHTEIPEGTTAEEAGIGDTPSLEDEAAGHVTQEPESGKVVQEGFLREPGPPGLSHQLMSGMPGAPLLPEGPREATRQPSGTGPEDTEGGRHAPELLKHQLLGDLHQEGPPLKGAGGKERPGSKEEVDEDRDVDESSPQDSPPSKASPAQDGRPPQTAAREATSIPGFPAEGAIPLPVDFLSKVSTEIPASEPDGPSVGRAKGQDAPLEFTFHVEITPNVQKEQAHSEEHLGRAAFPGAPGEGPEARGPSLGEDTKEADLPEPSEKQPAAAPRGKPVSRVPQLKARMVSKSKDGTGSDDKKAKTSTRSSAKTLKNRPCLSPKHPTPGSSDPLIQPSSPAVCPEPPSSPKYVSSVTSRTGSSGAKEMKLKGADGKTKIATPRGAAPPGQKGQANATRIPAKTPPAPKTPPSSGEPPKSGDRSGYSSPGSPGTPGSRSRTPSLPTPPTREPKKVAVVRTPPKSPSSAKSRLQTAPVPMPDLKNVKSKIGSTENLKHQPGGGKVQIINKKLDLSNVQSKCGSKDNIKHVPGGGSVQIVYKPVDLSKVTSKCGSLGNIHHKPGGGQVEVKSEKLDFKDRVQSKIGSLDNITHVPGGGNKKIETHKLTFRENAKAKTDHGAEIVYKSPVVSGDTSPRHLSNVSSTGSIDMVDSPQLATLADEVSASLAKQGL

HMC3 [28] = assay: Antiinflammatory activity against LPS/ATP-induced human HMC3 cells assessed as reduction in IL-18 level at 12.5 uM by Western blot analysis; format: functional, cell-based
Mus musculus [29] = assay: Reversal of scopolamine-induced cognitive deficit Swiss albino mouse model assessed as increase in time in platform quadrant at 10 mg/kg, ip measured after 5 days by Morris water maze test; format: functional, organism-based; conditions: time 5.0 day
HMC3 [30] = assay: Antiinflammatory activity against LPS/ATP-induced human HMC3 cells assessed as reduction in nuclear translocation of NF-kappaB at 12.5 uM by immunocytochemistry based analysis; format: functional, cell-based
Mus musculus [31] = assay: Neuroprotective activity against scopolamine-induced cognitive deficit Swiss albino mouse model assessed as increase in Nr4a2 mRNA level at 10 mg/kg, ip measured after 14 days by RT-PCR analysis; format: functional, organism-based; conditions: time 14.0 day
HMC3 [32] = assay: Inhibition of mitochondrial impairment in LPS/ATP-induced human HMC3 cells at 12.5 uM incubated for 24 hrs by Rhodamine 123/JC-1 staining based analysis; format: functional, cell-based
Acetylcholinesterase [33] = target: T1, Acetylcholinesterase; assay: Mixed inhibition of human AChE using ATCI as substrate at 0.1 to 5 uM preincubated for 30 mins followed by substrate addition by Ellman's method; conditions: dose 0.1-5 µM
PC-12 = assay: Cytotoxicity against rat PC-12 cells upto 20 uM incubated for 24 hrs by MTT assay; format: toxicity, cell-based; conditions: pc-12, 24 h
[34] = Antioxidant activity assessed as inhibition of DPPH radical scavenging activity incubated for 30 mins by absorbance based analysis; format: functional
Mus musculus [35] = assay: Neuroprotective activity against scopolamine-induced cognitive deficit Swiss albino mouse model assessed as increase in BDNF mRNA level at 10 mg/kg, ip measured after 14 days by RT-PCR analysis; format: functional, organism-based; conditions: time 14.0 day
[36] = target: Cholinesterase (Equus caballus) (UniProt P81908); assay: Competitive inhibition of equine BChE using BTCI as substrate at 1 to 10 uM preincubated for 30 mins followed by substrate addition by Ellman's method; conditions: dose 1-10 µM
Sequence of Cholinesterase (Equus caballus) (P81908 whole entry): as the sequence (P81908 whole entry) above

HMC3 [37] = assay: Inhibition of LPS/ATP-induced cytotoxicity against human HMC3 cells at 12.5 uM incubated for 24 hrs by MTT assay; format: functional, cell-based
Mus musculus [38] = assay: Neuroprotective activity against scopolamine-induced cognitive deficit Swiss albino mouse model assessed as increase in CREB1 mRNA level at 10 mg/kg, ip measured after 14 days by RT-PCR analysis; format: functional, organism-based; conditions: time 14.0 day
HMC3 [39] = assay: Induction of mitochondrial membrane potential stability in LPS/ATP-induced human HMC3 cells at 12.5 uM incubated for 24 hrs by Rhodamine 123/JC-1 staining based analysis; format: functional, cell-based
[40] = Acute toxicity in Swiss albino mouse assessed as signs of tremor at 2000 mg/kg, po measured 14 days post-administration; format: organism-based; conditions: in vivo, 336 h, time 14 day
Mus musculus [41] = assay: Protection against scopolamine-associated dementia in Swiss albino mouse model assessed as increase in latency period at 10 mg/kg, ip measured after 14 days by Passive avoidance task method; format: functional, organism-based; conditions: time 14.0 day
HMC3 [42] = assay: Antiinflammatory activity against LPS/ATP-induced human HMC3 cells assessed as reduction in NLRP3 level at 12.5 uM by Western blot analysis; format: functional, cell-based
HMC3 [43] = assay: Inhibition of ROS production in LPS/ATP-induced human HMC3 cells at 12.5 uM incubated for 24 hrs by MitoSOX Red FM staining based analysis; format: functional, cell-based
Mus musculus [44] = assay: Reversal of scopolamine-induced cognitive deficit Swiss albino mouse model assessed as increase in number of entries in target quadrant at 10 mg/kg, ip measured after 5 days by Morris water maze test; format: functional, organism-based; conditions: time 5.0 day
Mus musculus [45] = assay: Neuroprotective activity against scopolamine-induced cognitive deficit Swiss albino mouse model assessed as increase in PSD95 mRNA level at 10 mg/kg, ip measured after 14 days by RT-PCR analysis; format: functional, organism-based; conditions: time 14.0 day

For N/C(=N\O)c1cccc(NC(=O)Nc2cccc(F)c2)c1, the inhibition [1] was “Active”, the Activity (Mus musculus [2]) was “Active” and the Activity (HMC3 [3]) was “Active”. The Activity [4] was “inactive”, the Activity (Mus musculus [5]) was “Active” and the Activity [6] was “Non-toxic”. For the same molecule, the IC50 (Acetylcholinesterase [7]) was 1.72 µM, the Activity [8] was “Non-toxic” and the Activity (Mus musculus [9]) was “Active”. For the same molecule, the Activity (HMC3 [10]) was “Active”, the Activity (Mus musculus [11]) was “Active” and the Papp at 500 µM [12] was 10.7 ×10⁻⁶ cm/s. For the same molecule, the Activity (HMC3 [13]) was “Active”, the Activity [14] was “Non-toxic” and the Activity (HMC3 [15]) was “Active”. The Activity (HMC3 [16]) was “Active”, the Activity (HMC3 [17]) was “Active” and the Activity [18] was 46.1%. The IC50 (Cholinesterase [19]) was 5.21 µM, the Activity [20] was “inactive” and the Activity [21] was “Non-toxic”. For the same molecule, the Activity (HMC3 [22]) was “Active”, the IC50 (Cholinesterase [23]) was 6.69 µM and the Activity (Mus musculus [24]) was “Active”. The Activity [25] was “Non-toxic”, the Activity (Mus musculus [26]) was “Active” and the inhibition [27] was “Active”. The Activity (HMC3 [28]) was “Active”, the Activity (Mus musculus [29]) was “Active” and the Activity (HMC3 [30]) was “Active”. For the same molecule, the Activity (Mus musculus [31]) was “Active”, the inhibition (HMC3 [32]) was “Active” and the inhibition (Acetylcholinesterase [33]) was “Active”. The Activity (PC-12) was “Non-toxic”, the IC50 [34] was 16.1 µM and the Activity (Mus musculus [35]) was “Active”. For the same molecule, the inhibition [36] was “Active”, the inhibition (HMC3 [37]) was “Active” and the Activity (Mus musculus [38]) was “Active”. For the same molecule, the Activity (HMC3 [39]) was “Active”, the Activity [40] was “Non-toxic” and the Activity (Mus musculus [41]) was “Active”. For the same molecule, the Activity (HMC3 [42]) was “Active”, the inhibition (HMC3 [43]) was “Active” and the Activity (Mus musculus [44]) was “Active”. For the same molecule, the Activity (Mus musculus [45]) was “Active”.
